Source: patent US4684664A, “Derivatives of β-(4-isocyano-1,2,3,4-diepoxycyclopentyl) acrylic acid” (Kureha Kagaku Kogyo Kabushiki Kaisha, priority 1984, dated 1987)
In brackets after ≈: the same amount, converted by molar mass.

Columns and labels:
Assay type in all cases: cell-based
[1] = system: Staphylococcus aureus FDA 209PJc-1; assay: Antibacterial activity, agar-dilution MIC, organism No. 1; settings: Staphylococcus aureus, FDA209PJC1; Organism No. 1, bouillon-agar; read-out: Minimum Inhibitory Concentration
Procedure, shortened: (§1)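 Dilution in agar (bouillon-agar base) is the format; activity is expressed as MIC, μg per ml medium.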

[2] = system: Staphylococcus aureus Terajima; assay: Antibacterial activity, agar-dilution MIC, organism No. 2; settings: Staphylococcus aureus; Organism No. 2, bouillon-agar; read-out: Minimum Inhibitory Concentration
Procedure, shortened: as §1

[3] = system: Staphylococcus aureus MS 353; assay: Antibacterial activity, agar-dilution MIC, organism No. 3; settings: Staphylococcus aureus, MS353; Organism No. 3, bouillon-agar; read-out: Minimum Inhibitory Concentration
Procedure, shortened: as §1

[4] = system: Streptococcus pyogenes Cook; assay: Antibacterial activity, agar-dilution MIC, organism No. 4; settings: Streptococcus pyogenes; Organism No. 4, bouillon-agar; read-out: Minimum Inhibitory Concentration
Procedure, shortened: as §1

[5] = system: Escherichia coli NIHJ-JC-2; assay: Antibacterial activity, agar-dilution MIC, organism No. 5; settings: Escherichia coli, NIHJJC2; Organism No. 5, bouillon-agar; read-out: Minimum Inhibitory Concentration
Procedure, shortened: as §1

[6] = system: Escherichia coli K12 C600 IAM 1264; assay: Antibacterial activity, agar-dilution MIC, organism No. 6; settings: Escherichia coli, IAM1264; Organism No. 6, bouillon-agar; read-out: Minimum Inhibitory Concentration
Procedure, shortened: as §1

[7] = system: Klebsiella pneumoniae PCI-602; assay: Antibacterial activity, agar-dilution MIC, organism No. 7; settings: Klebsiella pneumoniae, PCI602; Organism No. 7, bouillon-agar; read-out: Minimum Inhibitory Concentration
Procedure, shortened: as §1

[8] = system: Salmonella typhimurium IID 971; assay: Antibacterial activity, agar-dilution MIC, organism No. 8; settings: Salmonella enterica; Organism No. 8, bouillon-agar; read-out: Minimum Inhibitory Concentration
Procedure, shortened: as §1

Salmonella typhi 901 = assay: Antibacterial activity, agar-dilution MIC, organism No. 9; settings: Salmonella enterica, TYPHI, read-out: Minimum Inhibitory Concentration
Procedure, shortened: as §1

[9] = system: Salmonella paratyphi-A 1015; assay: Antibacterial activity, agar-dilution MIC, organism No. 10; settings: Salmonella enterica, PARATYPHI, read-out: Minimum Inhibitory Concentration
Procedure, shortened: as §1

[10] = system: Salmonella shottmuelleri 8006; assay: Antibacterial activity, agar-dilution MIC, organism No. 11; settings: Salmonella, 8006; Organism No. 11, bouillon-agar; read-out: Minimum Inhibitory Concentration
Procedure, shortened: as §1

[11] = system: Salmonella enteritidis G 14; assay: Antibacterial activity, agar-dilution MIC, organism No. 12; settings: Salmonella enterica, ENTERITIDIS; Organism No. 12, bouillon-agar; read-out: Minimum Inhibitory Concentration
Procedure, shortened: as §1

[12] = system: Serratia marcescens IAM 1184; assay: Antibacterial activity, agar-dilution MIC, organism No. 13; settings: Serratia marcescens, IAM1184; Organism No. 13, bouillon-agar; read-out: Minimum Inhibitory Concentration
Procedure, shortened: as §1

[13] = system: Bacillus subtilis ATCC 6633; assay: Antibacterial activity, agar-dilution MIC, organism No. 14; settings: Bacillus subtilis, ATCC6633; Organism No. 14, bouillon-agar; read-out: Minimum Inhibitory Concentration
Procedure, shortened: as §1

[14] = system: Pseudomonas aeruginosa IFO 3445; assay: Antibacterial activity, agar-dilution MIC, organism No. 15; settings: Pseudomonas aeruginosa, IFO3445; Organism No. 15, bouillon-agar; read-out: Minimum Inhibitory Concentration
Procedure, shortened: as §1

[15] = system: Pseudomonas aeruginosa NCTC 10490; assay: Antibacterial activity, agar-dilution MIC, organism No. 16; settings: Pseudomonas aeruginosa, NCTC10490; Organism No. 16, bouillon-agar; read-out: Minimum Inhibitory Concentration
Procedure, shortened: as §1

[16] = system: Pseudomonas aeruginosa PAO 1; assay: Antibacterial activity, agar-dilution MIC, organism No. 17; settings: Pseudomonas aeruginosa, PAO1; Organism No. 17, bouillon-agar; read-out: Minimum Inhibitory Concentration
Procedure, shortened: as §1

[17] = system: Proteus morganii IFO 3848; assay: Antibacterial activity, agar-dilution MIC, organism No. 18; settings: Morganella morganii, IFO3848; Organism No. 18, bouillon-agar; read-out: Minimum Inhibitory Concentration
Procedure, shortened: as §1

[18] = system: Proteus mirabilis IFO 3849; assay: Antibacterial activity, agar-dilution MIC, organism No. 19; settings: Proteus mirabilis, IFO3849; Organism No. 19, bouillon-agar; read-out: Minimum Inhibitory Concentration
Procedure, shortened: as §1

Proteus vulgaris OX-19 = assay: Antibacterial activity, agar-dilution MIC, organism No. 20; settings: Proteus vulgaris, OX19; Organism No. 20, bouillon-agar; read-out: Minimum Inhibitory Concentration
Procedure, shortened: as §1

Proteus vulgaris HX-19 = assay: Antibacterial activity, agar-dilution MIC, organism No. 21; settings: Proteus vulgaris, HX19; Organism No. 21, bouillon-agar; read-out: Minimum Inhibitory Concentration
Procedure, shortened: as §1

[19] = system: Proteus rettgeri IFO 3850; assay: Antibacterial activity, agar-dilution MIC, organism No. 22; settings: Providencia rettgeri, IFO3850; Organism No. 22, bouillon-agar; read-out: Minimum Inhibitory Concentration
Procedure, shortened: as §1

[20] = system: Enterobacter aerogenes ATCC 13048; assay: Antibacterial activity, agar-dilution MIC, organism No. 23; settings: Klebsiella aerogenes, ATCC13048; Organism No. 23, bouillon-agar; read-out: Minimum Inhibitory Concentration
Procedure, shortened: as §1

Enterobacter cloacae 963 = assay: Antibacterial activity, agar-dilution MIC, organism No. 24; settings: Enterobacter cloacae, 963; Organism No. 24, bouillon-agar; read-out: Minimum Inhibitory Concentration
Procedure, shortened: as §1

[21] = system: Micrococcus luteus ATCC 9341; assay: Antibacterial activity, agar-dilution MIC, organism No. 25; settings: Micrococcus luteus, ATCC9341; Organism No. 25, bouillon-agar; read-out: Minimum Inhibitory Concentration
Procedure, shortened: as §1

[22] = system: Streptococcus pyogenes IFO 3340; assay: Antibacterial activity, agar-dilution MIC, organism No. 26; settings: Streptococcus pyogenes, IFO3340; Organism No. 26, bouillon-agar; read-out: Minimum Inhibitory Concentration
Procedure, shortened: as §1

[23] = system: Streptococcus faecium IFO 3826; assay: Antibacterial activity, agar-dilution MIC, organism No. 27; settings: Enterococcus faecium, IFO3826; Organism No. 27, bouillon-agar; read-out: Minimum Inhibitory Concentration
Procedure, shortened: as §1

[24] = system: Mycoplasma pneumoniae IID817; assay: Antimycoplasmal activity, MIC by phenol red colour change, organism No. 28; settings: Mycoplasma, IID817; Organism No. 28, PPLO broth + 1% glucose, 37° C.; read-out: Minimum Inhibitory Concentration (MIC)
Protocol: Mycoplasma pneumoniae IID817 was used as the test microorganism in a culture medium prepared by adding 1% of glucose to "PPLO broth (manufactured by Difco Co.) liquid culture medium" at 37° C. with phenol red as an indicator, thereby culturing the test microorganism.

[25] = system: Candida albicans IAM 4905; assay: Antifungal activity, agar-dilution MIC, organism No. 29; settings: Candida albicans, IAM4905; Organism No. 29, bouillon-agar; read-out: Minimum Inhibitory Concentration
Procedure, shortened: as §1

[26] = system: Aspergillus niger IFO 6342; assay: Antifungal activity, agar-dilution MIC, organism No. 30; settings: Aspergillus niger, IFO6342; Organism No. 30, bouillon-agar; read-out: Minimum Inhibitory Concentration
Procedure, shortened: as §1

Row | Compound | MIC [1] [µg/mL] | MIC [2] [µg/mL] | MIC [3] [µg/mL] | MIC [4] [µg/mL] | MIC [5] [µg/mL] | MIC [6] [µg/mL] | MIC [7] [µg/mL] | MIC [8] [µg/mL] | MIC (Salmonella typhi 901) [µg/mL] | MIC [9] [µg/mL] | MIC [10] [µg/mL] | MIC [11] [µg/mL] | MIC [12] [µg/mL] | MIC [13] [µg/mL] | MIC [14] [µg/mL] | MIC [15] [µg/mL] | MIC [16] [µg/mL] | MIC [17] [µg/mL] | MIC [18] [µg/mL] | MIC (Proteus vulgaris OX-19) [µg/mL] | further results
1 | [C-]#[N+]C12CC3(/C=C/C(=O)Nc4ccc(C(=O)OC)cc4)OC3C1O2 (stereo not drawn) [compound 49] | < 0.05 | < 0.05 | < 0.05 | 12.5 (≈ 38.3 µM) | 50 (≈ 153 µM) | 50 (≈ 153 µM) | < 0.05 | 0.39 (≈ 1.2 µM) | 0.1 (≈ 0.306 µM) | < 0.05 | < 0.05 | 0.39 (≈ 1.2 µM) | 12.5 (≈ 38.3 µM) | 0.78 (≈ 2.39 µM) | > 200 | > 200 | > 200 | 12.5 (≈ 38.3 µM) | > 200 | < 0.05 | MIC (Proteus vulgaris HX-19): < 0.05 µg/mL; MIC [19]: < 0.05 µg/mL; MIC [20]: > 200 µg/mL; MIC (Enterobacter cloacae 963): 25 µg/mL (≈ 76.6 µM); MIC [21]: < 0.05 µg/mL; MIC [22]: < 0.05 µg/mL; MIC [23]: 25 µg/mL (≈ 76.6 µM); MIC [24]: < 0.2 µg/mL; MIC [25]: 1.56 µg/mL (≈ 4.78 µM); MIC [26]: 3.13 µg/mL (≈ 9.59 µM)
2 | [C-]#[N+]C12CC3(/C=C/C(=O)Nc4cccc(O)c4)OC3C1O2 (stereo not drawn) [compound 57] | 1.56 (≈ 5.49 µM) | 6.25 (≈ 22 µM) | 1.56 (≈ 5.49 µM) | 12.5 (≈ 44 µM) | 12.5 (≈ 44 µM) | 12.5 (≈ 44 µM) | 1.56 (≈ 5.49 µM) | 12.5 (≈ 44 µM) | 3.13 (≈ 11 µM) | 3.13 (≈ 11 µM) | 1.56 (≈ 5.49 µM) | 3.13 (≈ 11 µM) | 12.5 (≈ 44 µM) | 6.25 (≈ 22 µM) | > 200 | > 200 | > 200 | 1.56 (≈ 5.49 µM) | 6.25 (≈ 22 µM) | 1.56 (≈ 5.49 µM) | MIC (Proteus vulgaris HX-19): 0.78 µg/mL (≈ 2.74 µM); MIC [19]: 3.13 µg/mL (≈ 11 µM); MIC [20]: > 200 µg/mL; MIC (Enterobacter cloacae 963): 100 µg/mL (≈ 352 µM); MIC [21]: 0.1 µg/mL (≈ 0.352 µM); MIC [22]: 3.13 µg/mL (≈ 11 µM); MIC [23]: 25 µg/mL (≈ 87.9 µM); MIC [24]: < 0.2 µg/mL; MIC [25]: 50 µg/mL (≈ 176 µM); MIC [26]: 50 µg/mL (≈ 176 µM)
